Data: ChEMBL document CHEMBL4184315, “Discovery of Inhibitor of Wnt Production 2 (IWP-2) and Related Compounds As Selective ATP-Competitive Inhibitors of Casein Kinase 1 (CK1) δ/ε” (J Med Chem, 2018)
Activity calls are given as the source filed them. The rule behind the calls is not given here.

What was measured:
[1] = biological target: T1, Casein kinase I isoform delta (Rattus norvegicus, UniProt Q06486); assay: Inhibition of full-length rat GST-tagged CK1delta using alpha-casein as substrate after 30 mins in presence of [gamma-32P]-ATP by Cherenkov counting method
[2] = biological target: Casein kinase I isoform epsilon (Homo sapiens, UniProt P49674); assay: Inhibition of human recombinant CK1epsilon using alpha-casein as substrate after 30 mins in presence of [gamma-32P]-ATP by Cherenkov counting method
[3] = biological target: Casein kinase I isoform delta (Rattus norvegicus, UniProt Q06486, M82F); assay: Inhibition of rat GST-tagged CK1delta M82F mutant at 10 uM using alpha-casein as substrate after 30 mins in presence of [gamma-32P]-ATP by Cherenkov counting method
[4] = biological target: Casein kinase I isoform gamma-3 (Homo sapiens) (UniProt Q9Y6M4); assay: Inhibition of human GST-tagged CK1gamma3 at 1 uM using alpha-casein as substrate after 30 mins in presence of [gamma-32P]-ATP by Cherenkov counting method
[5] = biological target: T2, Casein kinase I isoform alpha (Bos taurus) (UniProt P67827); assay: Inhibition of bovine GST-tagged CK1alpha at 1 uM using alpha-casein as substrate after 30 mins in presence of [gamma-32P]-ATP by Cherenkov counting method
T2 sequence (whole entry): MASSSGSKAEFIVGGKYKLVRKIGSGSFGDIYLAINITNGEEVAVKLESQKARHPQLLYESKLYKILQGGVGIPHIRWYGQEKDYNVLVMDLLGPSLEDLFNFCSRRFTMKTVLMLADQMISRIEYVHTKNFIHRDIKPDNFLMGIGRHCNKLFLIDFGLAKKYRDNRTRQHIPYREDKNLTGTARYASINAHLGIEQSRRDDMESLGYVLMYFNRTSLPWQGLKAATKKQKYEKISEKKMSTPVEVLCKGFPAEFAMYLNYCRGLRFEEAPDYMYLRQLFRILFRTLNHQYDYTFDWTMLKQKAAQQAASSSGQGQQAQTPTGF

[6] = biological target: T1, Casein kinase I isoform delta; assay: Inhibition of rat recombinant CK1delta kinase domain using alpha-casein as substrate after 30 mins in presence of [gamma-32P]-ATP by Cherenkov counting method
[7] = biological target: T3, Casein kinase I isoform delta (Homo sapiens, UniProt P48730); assay: Inhibition of CK1delta isolated from human PANC1 cells at 5 uM using GST-tagged p53 (1 to 64 residues) as substrate after 30 mins in presence of [gamma-32P]-ATP by Cherenkov counting method
[8] = biological target: T4, Protein-serine O-palmitoleoyltransferase porcupine (Homo sapiens, UniProt Q9H237); assay: Inhibition of porcupine in HEK293T cells transfected with Wnt3A-expressing vector assessed as suppression of Wnt/beta-catenin signaling after 22 hrs by Super-top flash reporter gene assay; assay type: cell-based
T4 sequence (Q9H237 whole entry): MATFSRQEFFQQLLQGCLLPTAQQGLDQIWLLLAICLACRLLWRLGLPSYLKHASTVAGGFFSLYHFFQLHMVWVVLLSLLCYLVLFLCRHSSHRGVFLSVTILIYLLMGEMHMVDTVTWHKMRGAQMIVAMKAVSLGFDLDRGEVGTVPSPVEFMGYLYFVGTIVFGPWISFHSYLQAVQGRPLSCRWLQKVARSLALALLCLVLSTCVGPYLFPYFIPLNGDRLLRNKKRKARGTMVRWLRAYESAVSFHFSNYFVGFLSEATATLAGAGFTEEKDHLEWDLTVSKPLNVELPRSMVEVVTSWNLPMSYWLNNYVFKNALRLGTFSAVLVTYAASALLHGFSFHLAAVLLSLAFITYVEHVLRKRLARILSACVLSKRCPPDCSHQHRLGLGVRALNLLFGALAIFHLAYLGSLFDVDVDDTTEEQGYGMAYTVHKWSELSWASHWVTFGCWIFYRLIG

Homo sapiens = species on record: Homo sapiens; assay: Inhibition of Wnt/beta-catenin signaling in HEK293T cells after 22 hrs in presence of Wnt3A-conditioned medium by Super-top flash reporter gene assay; assay type: cell-based
[9] = biological target: T5, Protein-serine O-palmitoleoyltransferase porcupine (Homo sapiens) (UniProt Q9H237); assay: Inhibition of porcupine in HEK293T cells transfected with Wnt3A-expressing vector assessed as suppression of Wnt/beta-catenin signaling at 5 uM after 22 hrs by Super-top flash reporter gene assay relative to control; assay type: cell-based
T5 sequence (whole entry): T4 sequence (Q9H237 whole entry)

HEK-293T [10] = assay: Upregulation of renilla luciferase expression in HEK293T cells transfected with Wnt3A-expressing vector up to 5 uM after 22 hrs by luminescence assay relative to control; assay type: cell-based; details: human
HEK-293T [11] = assay: Upregulation of renilla luciferase expression in HEK293T cells up to 5 uM after 22 hrs in presence of Wnt3A-conditioned medium by luminescence assay relative to control; assay type: cell-based; details: human
[12] = biological target: Casein kinase I isoform delta (Rattus norvegicus) (UniProt Q06486); assay: Inhibition of rat recombinant CK1delta kinase domain assessed as residual activity at 10 uM using alpha-casein as substrate after 30 mins in presence of [gamma-32P]-ATP by Cherenkov counting method
[13] = Antiproliferative activity against human A818-6 cells after 48 hrs by MTT assay; assay type: functional, cell-based
[14] = biological target: Casein kinase I isoform delta (Rattus norvegicus) (UniProt Q06486); assay: Inhibition of full-length rat GST-tagged CK1delta assessed as residual activity at 10 uM using alpha-casein as substrate after 30 mins in presence of [gamma-32P]-ATP by Cherenkov counting method
MIA PaCa-2 = assay: Antiproliferative activity against human MIAPaCa2 cells after 48 hrs by MTT assay; assay type: functional, cell-based; details: MIA PaCa-2, 48 h
CAPAN-1 = assay: Antiproliferative activity against human Capan1 cells after 48 hrs by MTT assay; assay type: functional, cell-based; details: CAPAN-1, 48 h
HEK293 = assay: Antiproliferative activity against human HEK293 cells after 48 hrs by MTT assay; assay type: functional, cell-based; details: HEK293, 48 h
[15] = Selectivity ratio of IC50 for human CK1epsilon to IC50 for rat recombinant CK1delta kinase domain
PANC-1 = assay: Antiproliferative activity against human PANC1 cells after 48 hrs by MTT assay; assay type: functional, cell-based; details: PANC-1, 48 h
[16] = Antiproliferative activity against human Panc89 cells after 48 hrs by MTT assay; assay type: functional, cell-based
HT-29 = assay: Antiproliferative activity against human HT-29 cells after 48 hrs by MTT assay; assay type: functional, cell-based; details: HT-29, 48 h
[17] = Selectivity ratio of IC50 for human CK1epsilon to IC50 for full-length rat GST-tagged CK1delta
SW-620 = assay: Antiproliferative activity against human SW620 cells after 48 hrs by MTT assay; assay type: functional, cell-based; details: SW-620, 48 h
[18] = biological target: T6, Casein kinase I delta/epsilon (Homo sapiens) (UniProt P48730+P49674); assay: Inhibition of CK1delta/epsilon in HEK293T cells transfected with Wnt3A-expressing vector assessed as suppression of Wnt/beta-catenin signaling up to 0.1 uM after 22 hrs by Super-top flash reporter gene assay; assay type: cell-based
[19] = biological target: T6, Casein kinase I delta/epsilon (Homo sapiens); assay: Inhibition of CK1delta/epsilon in HEK293T cells assessed as suppression of Wnt/beta-catenin signaling up to 0.1 uM after 22 hrs in presence of Wnt3A-conditioned medium by Super-top flash reporter gene assay; assay type: cell-based
[20] = biological target: T3, Casein kinase I isoform delta; details: 125 uM
[21] = biological target: Casein kinase I isoform gamma-3 (Homo sapiens) (UniProt Q9Y6M4); assay: Inhibition of human GST-tagged CK1gamma3 at 10 uM using alpha-casein as substrate after 30 mins in presence of [gamma-32P]-ATP by Cherenkov counting method
[22] = biological target: Casein kinase I isoform delta (Rattus norvegicus) (UniProt Q06486); assay: Inhibition of rat recombinant CK1delta kinase domain at 10 uM using alpha-casein as substrate after 30 mins in presence of [gamma-32P]-ATP by Cherenkov counting method
[23] = biological target: Casein kinase I isoform delta (Rattus norvegicus) (UniProt Q06486); assay: Inhibition of full-length rat GST-tagged CK1delta at 10 uM using alpha-casein as substrate after 30 mins in presence of [gamma-32P]-ATP by Cherenkov counting method
[24] = biological target: Casein kinase I isoform delta (Rattus norvegicus) (UniProt Q06486); assay: Ratio of IC50 for full-length rat GST-tagged CK1delta to IC50 for rat recombinant CK1delta kinase domain
[25] = biological target: T2, Casein kinase I isoform alpha (Bos taurus); assay: Inhibition of bovine GST-tagged CK1alpha at 10 uM using alpha-casein as substrate after 30 mins in presence of [gamma-32P]-ATP by Cherenkov counting method
[26] = biological target: Casein kinase I isoform delta (Rattus norvegicus) (UniProt Q06486); assay: Competitive inhibition of full-length rat GST-tagged CK1delta at IC50 using alpha-casein as substrate after 30 mins in presence of 10 to 500 uM ATP and [gamma-32P]-ATP by Cherenkov counting method
Rattus norvegicus = species on record: Rattus norvegicus; assay: Selectivity ratio of IC50 for full-length rat GST-tagged CK1delta to IC50 for rat GST-tagged CK1delta M82F mutant

Sequence of Casein kinase I isoform epsilon (P49674 whole entry, canonical isoform): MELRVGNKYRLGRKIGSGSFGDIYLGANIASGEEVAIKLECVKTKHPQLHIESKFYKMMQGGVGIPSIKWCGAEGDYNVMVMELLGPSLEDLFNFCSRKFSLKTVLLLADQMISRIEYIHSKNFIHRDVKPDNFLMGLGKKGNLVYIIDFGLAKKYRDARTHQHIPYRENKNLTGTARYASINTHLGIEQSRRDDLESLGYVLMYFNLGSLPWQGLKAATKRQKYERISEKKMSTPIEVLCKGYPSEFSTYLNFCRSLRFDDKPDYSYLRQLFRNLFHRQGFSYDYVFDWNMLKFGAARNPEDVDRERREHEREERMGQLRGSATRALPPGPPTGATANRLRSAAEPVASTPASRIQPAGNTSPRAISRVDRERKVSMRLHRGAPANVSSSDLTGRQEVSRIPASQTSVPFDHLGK
Sequence of Casein kinase I isoform delta (Rattus norvegicus) (Q06486 whole entry, looked up, the tested form may be a part, canonical isoform): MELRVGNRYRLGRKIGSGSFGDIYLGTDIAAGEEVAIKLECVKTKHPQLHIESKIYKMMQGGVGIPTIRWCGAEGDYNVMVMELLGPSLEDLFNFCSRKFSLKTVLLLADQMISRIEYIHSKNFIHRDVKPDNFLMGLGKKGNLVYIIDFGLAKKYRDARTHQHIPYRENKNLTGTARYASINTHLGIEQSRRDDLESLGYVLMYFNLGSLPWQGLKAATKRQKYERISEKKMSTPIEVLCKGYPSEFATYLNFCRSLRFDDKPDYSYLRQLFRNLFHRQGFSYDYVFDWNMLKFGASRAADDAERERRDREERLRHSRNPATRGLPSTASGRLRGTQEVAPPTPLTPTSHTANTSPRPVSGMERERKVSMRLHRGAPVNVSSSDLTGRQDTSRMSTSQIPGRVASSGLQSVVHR
T1 sequence (Q06486 whole entry, canonical isoform): as the sequence (Q06486 whole entry, looked up, the tested form may be a part, canonical isoform) above
Sequence of Casein kinase I isoform gamma-3 (Homo sapiens) (Q9Y6M4 whole entry, looked up, the tested form may be a part, canonical isoform): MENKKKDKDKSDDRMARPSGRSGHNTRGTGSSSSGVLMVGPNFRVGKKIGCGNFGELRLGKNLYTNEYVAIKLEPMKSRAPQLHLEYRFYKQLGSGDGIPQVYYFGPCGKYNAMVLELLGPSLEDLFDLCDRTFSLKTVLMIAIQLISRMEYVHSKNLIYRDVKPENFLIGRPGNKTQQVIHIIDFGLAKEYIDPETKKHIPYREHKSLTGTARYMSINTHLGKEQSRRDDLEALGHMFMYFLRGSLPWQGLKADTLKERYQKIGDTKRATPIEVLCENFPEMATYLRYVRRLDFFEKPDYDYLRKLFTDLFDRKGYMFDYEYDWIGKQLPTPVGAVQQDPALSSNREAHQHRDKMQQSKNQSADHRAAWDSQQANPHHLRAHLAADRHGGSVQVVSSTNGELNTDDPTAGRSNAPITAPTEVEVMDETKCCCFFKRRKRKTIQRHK
Sequence of Casein kinase I isoform delta (Rattus norvegicus, UniProt Q06486, M82F) (Q06486 whole entry M82F, canonical isoform): as the sequence (Q06486 whole entry, looked up, the tested form may be a part, canonical isoform) above, with M82F counted along it
T6 sequence (P48730 whole entry, looked up): as the sequence (Q06486 whole entry, looked up, the tested form may be a part, canonical isoform) above, with V381I counted along it
T6 sequence (P49674 whole entry, looked up): as the sequence (P49674 whole entry, canonical isoform) above
T3 sequence (P48730 whole entry, looked up, the tested form may be a part, canonical isoform): as the sequence (Q06486 whole entry, looked up, the tested form may be a part, canonical isoform) above, with V381I counted along it

Structure (SMILES): O=C(CSc1nc2c(c(=O)n1Cc1ccccc1)SCC2)Nc1nc2ccc(C(F)(F)F)cc2s1
- IC50 [1]: 1060 nM
- IC50 [2]: 1410 nM
- IC50 [3]: 270 nM
- inhibition [4]: Active
- inhibition [5]: Active
- IC50 [6]: 520 nM

Structure (SMILES): O=C(CSc1nc2c(c(=O)n1-c1ccccc1)SCC2)Nc1nc2ccc(C(F)(F)F)cc2s1
- IC50 [1]: 660 nM
- IC50 [2]: 4120 nM
- IC50 [3]: 210 nM
- inhibition [4]: Active
- inhibition [5]: Active
- IC50 [6]: 400 nM

Structure (SMILES): COc1cc(OC)c(/C=C2/C(=O)Nc3ccccc32)c(OC)c1
- inhibition [7]: 40%

Structure (SMILES): Cc1cc(-c2ccc(CC(=O)Nc3ccc(-c4cccnc4)cc3)cc2)ccn1
- IC50 [8]: < 1 nM
- inhibition (Homo sapiens): inactive
- Imax [9]: 1.1%
- fold change (FC) (HEK-293T [10]): <= 1.3
- fold change (FC) (HEK-293T [11]): <= 1.5

Structure (SMILES): O=C(CSc1nc2c(c(=O)n1Cc1ccc(OC(F)(F)F)cc1)SCC2)Nc1nc2ccc(C(F)(F)F)cc2s1
- IC50 [1]: 700 nM
- inhibition [4]: Active
- inhibition [5]: Active

Structure (SMILES): COc1ccccc1-n1c(SCC(=O)Nc2nc3ccc(C)cc3s2)nc2c(c1=O)SCC2
- Activity [12]: 22%
- EC50 [13]: 930 nM
- Activity [14]: 25%
- EC50 (MIA PaCa-2): 230 nM
- EC50 (CAPAN-1): 230 nM
- EC50 (HEK293): 280 nM
- Ratio IC50 [15]: < 17
- EC50 (PANC-1): 230 nM
- IC50 [1]: 1060 nM
- EC50 [16]: 580 nM
- EC50 (HT-29): 340 nM
- IC50 [2]: 7070 nM
- IC50 [3]: 140 nM
- Ratio IC50 [17]: 4 to 7
- EC50 (SW-620): 230 nM
- IC50 [6]: 1020 nM

Structure (SMILES): O=C(CSc1nc2c(c(=O)n1Cc1ccc(C(F)(F)F)cc1)SCC2)Nc1nc2ccc(C(F)(F)F)cc2s1
- IC50 [1]: 330 nM
- inhibition [4]: Active
- inhibition [5]: Active

Structure (SMILES): Fc1cccc(-n2cnc3c(NCc4nc5c(F)c(F)ccc5[nH]4)nc(N4CCOCC4)nc32)c1
- inhibition [18]: Dose-dependent effect
- inhibition [19]: Dose-dependent effect

Structure (SMILES): O=C(CSc1nc2c(c(=O)n1Cc1cccc(C(F)(F)F)c1)SCC2)Nc1nc2ccc(C(F)(F)F)cc2s1
- IC50 [1]: 1030 nM
- inhibition [4]: Active
- inhibition [5]: Active

Structure (SMILES): Nc1nccc(-c2c(-c3ccc(F)cc3)ncn2C2CCCCC2)n1
- inhibition [20]: 40%

Structure (SMILES): Cc1ccc2nc(NC(=O)CSc3nc4c(c(=O)n3-c3ccc(F)cc3)SCC4)sc2c1
- inhibition [21]: Active
- EC50 [13]: > 10000 nM
- inhibition [22]: Active
- inhibition [23]: Active
- EC50 (MIA PaCa-2): 5340 nM
- EC50 (CAPAN-1): > 10000 nM
- EC50 (HEK293): 3500 nM
- Ratio IC50 [15]: < 17
- EC50 (PANC-1): 4870 nM
- IC50 [1]: 1890 nM
- Ratio IC50 [24]: 4
- EC50 [16]: 5070 nM
- EC50 (HT-29): > 10000 nM
- IC50 [2]: > 10000 nM
- IC50 [3]: 150 nM
- Ratio IC50 [17]: 4 to 7
- EC50 (SW-620): 8620 nM
- IC50 [6]: 550 nM
- inhibition [25]: inactive

Structure (SMILES): Cc1ccc2nc(NC(=O)CSc3nc4c(c(=O)n3Cc3ccccc3)SCC4)sc2c1
- inhibition [21]: Active
- EC50 [13]: > 10000 nM
- inhibition [26]: Active
- inhibition [22]: Active
- inhibition [23]: Active
- EC50 (MIA PaCa-2): 5650 nM
- EC50 (CAPAN-1): > 10000 nM
- EC50 (HEK293): > 10000 nM
- Ratio IC50 [15]: < 17
- EC50 (PANC-1): > 10000 nM
- IC50 [1]: 1660 nM
- Ratio IC50 [24]: 4
- EC50 [16]: 3100 nM
- EC50 (HT-29): > 10000 nM
- IC50 [2]: 7340 nM
- IC50 [3]: 60 nM
- Ratio IC50 (Rattus norvegicus): 28
- Ratio IC50 [17]: 4 to 7
- EC50 (SW-620): 8520 nM
- IC50 [6]: 420 nM
- inhibition [25]: inactive

Structure (SMILES): COc1cccc(Cn2c(SCC(=O)Nc3nc4ccc(C(F)(F)F)cc4s3)nc3c(c2=O)SCC3)c1OC
- IC50 [1]: 760 nM
- IC50 [2]: 1230 nM
- IC50 [3]: 210 nM
- inhibition [4]: Active
- inhibition [5]: Active
- IC50 [6]: 230 nM
